Data published in patent US7662767B2, “Polynucleotide intercalator interceptors and inhibitors” (Materials Evolution and Development USA, Inc., priority 2000, dated 2010).
“And” between values parts separate entries of the source, which are not always exact repeats. Equal values may be shown once.

Columns and labels:
herring sperm dsDNA = test: Acridine orange with dsDNA, spectrofluorometry λem 530 nm; type: binding; settings: AO-DNA, AO [2 μM], DNA [>20 μM], hydrochloride
Experimental: In another implementation, a spectrofluorometric analysis of the interaction of AO with dsDNA at λex 485 nm and λem 530 nm and 635 nm was also conducted. The interaction of DNA with lower concentrations of AO [2 μM] mimicked the results found at the higher AO concentration of 20 μM for bp:AO ratios of 4:1 and above. The association curve for AO over a series of steadily increasing DNA concentrations ranging from […] of DNA is shown in FIG. 3-8.
The example shown in FIG. 3-8 illustrating the effect of NaCl on the fluorescence of 2 μM AO was determined over a range of bp:AO ratios from 4 to 62.5. The excitation wavelength was 485 nm while emission was monitored at 530 nm. The association constant for 2 μM AO with DNA was determined to be 31,990±310 M^−1 (R^2=0.98) in the absence of NaCl and 31,690±498 M^−1 (R^2=0.96) in the presence of NaCl. Error bars are shown to denote confidence intervals at 95% unless hidden by a data point symbol. The delta fluorescence values were obtained by subtracting the background fluorescence of HEPES buffered AO at 2 μM in the absence of DNA. The association constant for the interaction of AO with DNA was determined to be 31,990±3,190 M^−1.

[1] = Acridine orange self-association (AO-AO dimer), absorbance; type: binding
Experimental: Association constants were calculated using a modification of an equation described by Zaini et al. (1999) to determine equilibrium constants for weakly bound complexes by absorbance spectrophotometry. By definition K=Xd/(Xm* Xm), where K is the binding constant Kassoc, Xd is the concentration of the AO dimer and Xm is the concentration of the AO monomer. Conservation of mass gives Xt=Xm+2*Xd, where Xt is the total concentration of AO in solution. Rearranging the conservation of mass equation gives Xm=Xt−2*Xd, and substituting into the equation for Kassoc and rearranging gives Equation 4: Kassoc(Xt*Xt−4*Xt*Xd+4*Xd*Xd)−Xd=0 EQUATION 4:
Rearranging gives: Xd*Xd−(Xt+1/(4*.Kassoc)*Xd+Xt*Xt/4=0 EQUATION5:
Applying the quadratic formula (X=[−B±SQRT(B^2−4AC]/2A) to Equation 3-5 and taking a physically reasonable root gives Equation 3-6: Xd=[Xt+1/(4*K)−SQRT(Xt/(2*K)+1/[…])]/2 EQUATION 6:
Where SQRT ( ) indicates taking the square root of the content of the parentheses. The fluorescence values at λem 530 nm (F530) is a function of Xt and F530=Xd*ε, where “ε” is the fluorescence yield of the dimer. The equation was solved by non-linear least squares using Prism™ software and binding constants determined. […] Fluorescence values (fi) are reported as raw data normalized to scale and not adjusted by a dilution factor following aliquot additions. Absorbance data taken at 468 nm was also used to calculate the Kassoc for the AO-AO dimer using Equation 6.
In the example shown in FIG. 3-1A, absorbance was scanned between 400 nm and 550 nm over a range of AO concentrations from 2.5 μM to 20 μM in a 5 mM solution of HEPES buffer at pH 7.0. […] Note that the absorbance at 492 nm (A492) is indicative of the concentration of the AO monomer, whereas the absorbance at 468 nm (A468) is indicative of the concentration of the AO-AO dimer (Kapuscinski and Kimmel, 1993). […]
The absorbance was scanned between 410 nm and 540 nm over a range of AO concentrations from 10 μM-45 μM in a 5 mM solution of […] buffer at pH 7.0 in the presence of 150 mM of NaCl. […]

[2] = test system: chicken erythrocyte nuclear chromatin; test: Acridine orange staining of chicken erythrocyte nuclear chromatin, fluorescence microscopy; type: binding
Experimental: Chicken erythrocytes were chosen as one implementation of this invention. These nucleated cells have mature erythrocytes with no RNA. Blood was taken from a mature chicken. The blood was drawn from a wing vein into 50 ml glass heparin containing tubes to prevent clotting. This blood was used to make smears on microscope slides. These blood smeared slides were allowed to dry at room temperature and were stored in microscope boxes.
Solutions of AO were prepared at 5 mM and 10 μM concentrations in distilled water. Microscope slides smeared with chicken erythrocytes were stained by placing the slide into a glass slide holder containing 50 ml of AO solution under static conditions from 2 min to 30 min, followed by three 10 second rinses in distilled water before drying at room temperature. […] Processed slides were stored in the dark then read and photomicrographs taken (Zeiss Model 63 Microscope, 1600 ASA Kodak film) soon after removal from the dark to avoid photobleaching.
In the example shown in Table 4-1, the chicken erythrocytes were smeared and dried on a microscope slide prior to exposure to two different concentrations of AO (10 μM and 5 mM), rinsed with distilled water, and allowed to dry. Erythrocytes were examined with fluorescence microscopy and the color of the nuclei recorded. […]

[3] = Absorbance binding spectra of doxorubicin titrated with caffeine or chlorophyllin; settings: 10 μM doxorubicin

CN(C)c1ccc2cc3ccc(N(C)C)cc3nc2c1.Cl [AO, 3,6-bis[dimethylamino]acridine hydrochloride]
K ± S.D. (herring sperm dsDNA; Fluorescence plus NaCl): 31,690±498 M^−1 and 31,690±4,980 M^−1 | K ± S.D. (herring sperm dsDNA; Fluorescence plus NaCl, listed as AO-DNA): 31,690 ± 4,890 M^−1 | K ± S.D. (herring sperm dsDNA; Fluorescence, absence of NaCl): 31,990±310 M^−1 and 31,990±3,190 M^−1 | K ± S.D. (herring sperm dsDNA; Fluorescence, absence of NaCl, listed as AO-DNA): 31,990 ± 3,190 M^−1 | K ± S.D. ([1]; Absorbance plus NaCl, AO [10-45 μM]): 47,510 ± 2,420 M^−1 | K ± S.D. ([1]; Absorbance, AO [2.5-20 μM]): 46,840 ± 5,967 M^−1 | K ± S.D. ([1]; Absorbance, AO [10-80 μM]): 49,530 ± 2,953 M^−1 | Fluorescent Color ([2]; AO 10 μM): Green | Fluorescent Color ([2]; AO 5 mM): Red

Cn1c(=O)c2c(ncn2C)n(C)c1=O [1,3,7-trimethyl xanthine (caffeine), 1,3,7-trimethyl xanthine]
binding to doxorubicin [3]: binds with doxorubicin
